Legend:
Solubility test = type: physicochemical; settings: kinetic from dmso stock; artificial intestinal juice pH 6.8, 1% DMSO, 25° C. for 16 hours
Protocol: The solubility of a compound was determined under a condition in which 1% DMSO was added. 10 mmol/L compound solution was prepared using DMSO, and then 6 μL of the compound solution was added to 594 μL of artificial intestinal juice in pH 6.8 (to 250 mL of 0.2 mol/L potassium dihydrogen phosphate reagent solution was added 118 mL of 0.2 mol/L NaOH reagent solution and water to provide a final volume of 1000 mL). After standing at 25° C. for 16 hours, the mixed solution was filtered with suction. The filtrate was diluted twice with methanol/water (1/1), and then a concentration in the filtration was measured with HPLC or LC/MS/MS by the absolute calibration method.

CYP3A4 = molecular target: T1, CYP3A4 (Homo sapiens, UniProt P08684); experiment: CYP inhibition test, pooled human liver microsome, CYP3A4; type: in vitro ADME; settings: hydroxylation of terfenadine
T1 construct: enzyme: pooled human liver microsome 0.2 mg protein/mL; from tissue; host or cells: pooled human liver microsome
T1 sequence (P08684 whole entry): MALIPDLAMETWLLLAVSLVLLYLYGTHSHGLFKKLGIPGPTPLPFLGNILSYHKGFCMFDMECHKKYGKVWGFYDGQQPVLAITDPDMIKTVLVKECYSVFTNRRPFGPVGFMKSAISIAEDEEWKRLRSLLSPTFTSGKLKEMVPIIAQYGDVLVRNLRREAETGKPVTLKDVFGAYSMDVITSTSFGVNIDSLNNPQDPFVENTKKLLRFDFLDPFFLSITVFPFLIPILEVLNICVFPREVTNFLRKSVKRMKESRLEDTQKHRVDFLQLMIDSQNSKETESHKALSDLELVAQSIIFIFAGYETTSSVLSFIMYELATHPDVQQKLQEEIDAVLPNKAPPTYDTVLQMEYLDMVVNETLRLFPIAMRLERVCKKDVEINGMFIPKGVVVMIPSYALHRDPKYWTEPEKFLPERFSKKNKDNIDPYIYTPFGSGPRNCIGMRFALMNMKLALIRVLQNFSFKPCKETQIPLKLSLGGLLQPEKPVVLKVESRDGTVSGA
Excerpt: (§1) O-de-ethylation of 7-ethoxyresorufin (CYP1A2), methyl-hydroxylation of tolbutamide (CYP2C9), 4′-hydroxylation of mephenyloin (CYP2C19), O-demethylation of dextromethorphan (CYP2D6), and hydroxylation of terfenadine (CYP3A4), which are typical substrate for metabolic reactions of human main CYP5 molecular species (CYP1A2, 2C9, 2C19, 2D6, and 3A4), were adopted as indexes.
(§2) The reaction conditions are as follows: substrate: 0.5 μmol/L of ethoxyresorufin (CYP1A2), 100 μmol/L of tolbutamide (CYP2C9), […] of S-mephenyloin (CYP2C19), 5 μmol/L of dextromethorphan (CYP2D6), and 1 μmol/L of terfenadine (CYP3A4); reaction time; 15 minutes; reaction temperature: 37° C.; enzyme: pooled human liver microsome 0.2 mg protein/mL; test drug concentration: 1, 5, 10, and 20 μmol/L (4 points).
(§3) In a 96-well plate, as a reaction solution, five kinds of substrates, a human liver microsome, and a test drug were added to 50 mmol/L Hepes buffer solution in the aforementioned ratio. A coenzyme NADPH was added to start a metabolic reaction, which is an index. After reacting at 37° C. for 15 minutes, a solution of methanol/acetonitrile (1/1 (v/v)) was added to quench the reaction. After centrifugation at 3000 rpm for 15 minutes, resorufin (CYP1A2 metabolite) in the supernatant was quantitated with a fluorescence multilabel counter, and hydroxylated tolbutamide (CYP2C9 metabolite), 4′-hydroxylated mephenyloin (CYP2C19 metabolite), […], terfenadine in alcohol form (CYP3A4 metabolite) were quantitated with LC/MS/MS.
(§4) The case wherein only DMSO (a solvent which dissolved a drug) was added to a reaction system was defined as a control (100%). When a test drug solution was added, the remaining activity (%) at each concentration was calculated, and then IC50 was calculated with a concentration and an inhibition ratio by an inverse estimation using a logistic model.

CYP1A2 = molecular target: T2, CYP1A2 (Homo sapiens, UniProt P05177); experiment: CYP inhibition test, pooled human liver microsome, CYP1A2; type: in vitro ADME; settings: O-de-ethylation of 7-ethoxyresorufin
T2 construct: enzyme: pooled human liver microsome 0.2 mg protein/mL; from tissue; host or cells: pooled human liver microsome
T2 sequence (P05177 1-516): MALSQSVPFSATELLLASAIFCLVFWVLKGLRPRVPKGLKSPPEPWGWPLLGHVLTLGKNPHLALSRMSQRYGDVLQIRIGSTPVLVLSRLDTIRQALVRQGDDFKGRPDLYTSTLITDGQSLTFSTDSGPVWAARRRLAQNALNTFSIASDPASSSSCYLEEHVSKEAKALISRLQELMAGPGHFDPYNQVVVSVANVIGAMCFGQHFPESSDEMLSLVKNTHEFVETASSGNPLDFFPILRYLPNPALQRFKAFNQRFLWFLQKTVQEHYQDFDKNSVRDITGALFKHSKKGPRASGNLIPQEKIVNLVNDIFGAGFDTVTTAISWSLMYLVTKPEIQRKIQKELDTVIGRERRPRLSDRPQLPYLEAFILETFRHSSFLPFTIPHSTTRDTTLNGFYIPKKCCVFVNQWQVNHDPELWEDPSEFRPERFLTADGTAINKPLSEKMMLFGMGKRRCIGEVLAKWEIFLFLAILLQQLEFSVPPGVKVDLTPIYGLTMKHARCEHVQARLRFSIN
Excerpt: as §1, §2, §3, §4

CYP2C19 = molecular target: T3, CYP2C19 (Homo sapiens, UniProt P33261); experiment: CYP inhibition test, pooled human liver microsome, CYP2C19; type: in vitro ADME; settings: 4′-hydroxylation of mephenyloin
T3 construct: enzyme: pooled human liver microsome 0.2 mg protein/mL; from tissue; host or cells: pooled human liver microsome
T3 sequence (P33261 whole entry): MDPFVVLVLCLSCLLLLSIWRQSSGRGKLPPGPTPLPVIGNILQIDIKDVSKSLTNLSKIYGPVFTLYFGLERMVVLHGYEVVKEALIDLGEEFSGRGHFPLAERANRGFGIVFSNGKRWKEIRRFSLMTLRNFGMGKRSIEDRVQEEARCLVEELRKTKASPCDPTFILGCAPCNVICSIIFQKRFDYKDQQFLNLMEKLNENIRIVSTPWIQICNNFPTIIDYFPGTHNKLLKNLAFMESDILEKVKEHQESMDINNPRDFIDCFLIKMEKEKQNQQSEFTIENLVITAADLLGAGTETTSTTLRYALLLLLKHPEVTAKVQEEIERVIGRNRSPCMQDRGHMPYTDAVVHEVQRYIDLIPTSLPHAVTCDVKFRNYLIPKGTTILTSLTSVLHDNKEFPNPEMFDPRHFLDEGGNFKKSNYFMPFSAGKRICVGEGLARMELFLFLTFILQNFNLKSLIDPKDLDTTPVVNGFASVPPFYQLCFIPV
Excerpt: as §1, §2, §3, §4

PI-3 kinase γ = PI-3 kinase γ (Homo sapiens, UniProt P48736); experiment: PI3Kγ inhibitory activity, PI3-kinase HTRF assay (inhibition ratio); type: biochemical; settings: 0.5 h; for inhibition at 50 µM: compound at 50 μM
Sequence of PI-3 kinase γ (P48736 whole entry): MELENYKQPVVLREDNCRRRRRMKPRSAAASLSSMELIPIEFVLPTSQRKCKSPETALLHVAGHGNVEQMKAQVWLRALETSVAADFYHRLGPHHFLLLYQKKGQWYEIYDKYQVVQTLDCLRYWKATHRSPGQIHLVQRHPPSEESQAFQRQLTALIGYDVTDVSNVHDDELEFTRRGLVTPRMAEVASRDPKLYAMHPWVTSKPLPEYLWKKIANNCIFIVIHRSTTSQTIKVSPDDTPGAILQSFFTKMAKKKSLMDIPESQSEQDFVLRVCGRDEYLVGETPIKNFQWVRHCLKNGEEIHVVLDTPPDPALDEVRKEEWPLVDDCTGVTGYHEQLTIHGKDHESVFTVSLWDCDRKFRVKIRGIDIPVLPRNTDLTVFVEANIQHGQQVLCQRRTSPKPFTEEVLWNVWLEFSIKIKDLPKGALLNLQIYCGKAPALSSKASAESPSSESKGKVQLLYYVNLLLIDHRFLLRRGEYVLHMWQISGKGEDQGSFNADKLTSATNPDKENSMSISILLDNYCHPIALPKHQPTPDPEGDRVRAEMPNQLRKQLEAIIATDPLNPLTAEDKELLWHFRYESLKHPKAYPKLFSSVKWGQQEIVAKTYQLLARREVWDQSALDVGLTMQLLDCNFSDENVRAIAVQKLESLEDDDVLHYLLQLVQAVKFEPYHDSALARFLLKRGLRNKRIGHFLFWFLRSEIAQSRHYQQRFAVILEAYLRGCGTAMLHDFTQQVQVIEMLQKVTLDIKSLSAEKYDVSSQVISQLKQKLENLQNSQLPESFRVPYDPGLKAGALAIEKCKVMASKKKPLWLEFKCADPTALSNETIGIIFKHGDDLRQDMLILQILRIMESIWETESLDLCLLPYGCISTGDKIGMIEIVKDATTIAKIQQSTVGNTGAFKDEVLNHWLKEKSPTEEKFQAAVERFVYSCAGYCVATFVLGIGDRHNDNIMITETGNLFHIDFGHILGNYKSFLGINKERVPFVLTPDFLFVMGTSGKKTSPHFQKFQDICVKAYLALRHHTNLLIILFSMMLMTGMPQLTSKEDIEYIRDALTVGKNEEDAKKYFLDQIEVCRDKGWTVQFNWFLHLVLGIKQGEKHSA
How it was run: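 Single-concentration inhibition ratio (50 or 10 μmol/L compound) versus no-compound (100%) and no-enzyme (0%) wells. Reaction: PI-3 kinase γ, PIP2, ATP, MgCl2/DTT, 30 min at RT after 10 min preincubation. Read-out: HTRF 665/620 nm after 18 h detection.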

CYP2C9 = molecular target: T4, CYP2C9 (Homo sapiens, UniProt P11712); experiment: CYP inhibition test, pooled human liver microsome, CYP2C9; type: in vitro ADME; settings: methyl-hydroxylation of tolbutamide
T4 construct: enzyme: pooled human liver microsome 0.2 mg protein/mL; from tissue; host or cells: pooled human liver microsome
T4 sequence (P11712 whole entry): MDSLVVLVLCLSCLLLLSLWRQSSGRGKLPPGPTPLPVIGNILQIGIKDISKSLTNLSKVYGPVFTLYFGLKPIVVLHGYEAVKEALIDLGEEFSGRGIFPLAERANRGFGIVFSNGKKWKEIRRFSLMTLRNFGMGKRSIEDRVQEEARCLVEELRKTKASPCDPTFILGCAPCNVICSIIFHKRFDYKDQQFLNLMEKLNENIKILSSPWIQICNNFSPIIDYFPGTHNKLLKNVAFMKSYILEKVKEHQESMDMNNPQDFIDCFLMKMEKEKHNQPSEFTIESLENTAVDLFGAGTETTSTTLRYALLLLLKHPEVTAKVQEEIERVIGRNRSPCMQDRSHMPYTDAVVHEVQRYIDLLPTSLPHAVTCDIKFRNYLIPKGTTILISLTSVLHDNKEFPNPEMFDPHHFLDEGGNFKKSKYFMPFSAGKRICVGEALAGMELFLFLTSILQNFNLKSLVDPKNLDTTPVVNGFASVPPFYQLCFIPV
Excerpt: as §1, §2, §3, §4

Metabolic stability test = type: in vitro ADME; settings: human liver microsome 0.5 mg protein/mL, 1 mmol/L NADPH, 37° C.
Protocol: After a subject compound was reacted for a certain time using a pooled human liver microsome commercially available, a reacted sample and an unreacted sample are compared to calculate a survival ratio, and then the degree of metabolism in the liver was evaluated.
0.2 mL of a buffer solution (50 mmol/L of Tris-HCl in pH 7.4, 150 mmol/L of potassium chloride, and 10 mmol/L of magnesium chloride) containing a human liver microsome of 0.5 mg protein/mL was reacted in the presence of 1 mmol/L NADPH at 37° C. for 0 or 30 minutes (oxidative reaction). After reacting, 50 μL of the reaction solution was added to 100 μL of a solution of methanol/acetonitrile (1/1 (v/v)), mixed, and then centrifuged at 3000 rpm for 15 minutes. The test compound in the supernatant was quantitated with LC/MS/MS. The amount of the compound at a reaction time of 0 minute was defined as 100% and, based on that, the percentage of the test compound remained after reacting for 30 minutes was calculated.

CYP2D6 = molecular target: T5, CYP2D6 (Homo sapiens, UniProt P10635); experiment: CYP inhibition test, pooled human liver microsome, CYP2D6; type: in vitro ADME; settings: O-demethylation of dextromethorphan
T5 construct: enzyme: pooled human liver microsome 0.2 mg protein/mL; from tissue; host or cells: pooled human liver microsome
T5 sequence (P10635 whole entry): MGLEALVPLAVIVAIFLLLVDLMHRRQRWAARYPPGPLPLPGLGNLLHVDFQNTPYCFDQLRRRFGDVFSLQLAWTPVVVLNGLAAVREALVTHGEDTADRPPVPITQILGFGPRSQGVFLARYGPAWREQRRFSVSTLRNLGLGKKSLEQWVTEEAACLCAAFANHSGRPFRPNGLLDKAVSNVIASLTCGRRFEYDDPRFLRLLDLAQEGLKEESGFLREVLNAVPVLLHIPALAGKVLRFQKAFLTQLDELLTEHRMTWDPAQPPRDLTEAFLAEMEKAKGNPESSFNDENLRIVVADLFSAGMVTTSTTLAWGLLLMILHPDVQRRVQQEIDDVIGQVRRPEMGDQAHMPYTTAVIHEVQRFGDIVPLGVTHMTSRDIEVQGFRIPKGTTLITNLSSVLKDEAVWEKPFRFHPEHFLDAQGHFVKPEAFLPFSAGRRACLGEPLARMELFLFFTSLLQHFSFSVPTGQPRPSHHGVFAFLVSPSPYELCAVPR
Excerpt: as §1, §2, §3, §4

[1] = tested on: AKT phosphorylation in human monocyte-like cell line THP-1; experiment: AKT phosphorylation inhibitory activity in MCP-1-stimulated THP-1 cells (ELISA); type: cell-based; settings: 1 μmol/L solution of each compound, MCP-1 stimulation, read-out: AKT phosphorylation inhibition ratio
Protocol: (1) The AKT phosphorylation inhibitory activity of a compound was evaluated according to the following procedure. (2) Human monocyte-like cell line THP-1 was washed with RPMI-1640 media, incubated in the presence of 5% CO2 at 37° C. for 3 hours, washed with Hank's balanced salt solution (HBSS), adjusted to a cell concentration of 6.6×10^6/mL, and then used in an experiment. (3) 30 μL of the cell suspension and 60 μL of each compound solution containing 0.2% DMSO/HBSS were mixed and then preincubated at 37° C. for 5 minutes. 30 μL of HBSS containing 4 μg/mL of MCP-1 was added thereto and then incubated for 30 seconds at 37° C. (4) 30 μl of a cell lysate (20 mmol/L Tris-HCl (pH 7.5), 150 mmol/L NaCl, 1 mmol/L Na2EDTA, 1 mmol/L EGTA, 1% Triton, 2.5 mmol/L sodium pyrophosphate, 1 mmol/L β-glycerophosphate, 1 mmol/L Na3VO4, 1 μg/ml leupeptin, 50 nmol/L APMSF) was added thereto to lyse cells. (5) The amount of AKT phosphorylation in the cell lysate was measured by ELISA method. (6) Anti-phospho-Akt (Ser473) antibodies (clone 193H12, derived from a rabbit) were immobilized onto the solid phase of a micro well plate. 100 μL of the prepared cell lysate was added to the micro well plate, incubated for 2 hours at 37° C., and then washed four times with Phosphate Buffered Saline containing 0.05% Tween-20. (7) An anti-AKT1 antibody (clone 2H10, derived from a mouse) was added thereto, incubated for 1 hour at 37° C., washed similarly, and then reacted with an HRP-labeled anti-mouse IgG antibody. (8) After incubating at 37° C. for 30 minutes and then washing similarly, 100 μL of TMB (3,3′,5,5″-tetramethylbenzidine) was added thereto, followed by reacting at room temperature for 30 minutes. (9) 100 μL of 1 mol/L sulfuric acid was added to quench the color reaction and then the absorbance at 450 nm was measured. (10) A series of diluted cell lysates of a positive control (a sample in the absence of a compound) were used to prepare a calibration curve, the amount of AKT phosphorylation in a sample in the absence of MCP-1 was defined as 0% activity to calculate an inhibition ratio. The measurement was performed for a 1 μmol/L solution of each compound.
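For percentage of the test compound remained after reacting for 30 minutes in this document: 100% equals the compound amount at 0 min reaction.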

Row | solubility at 16 h (Solubility test) | IC50 (CYP3A4) | IC50 (CYP1A2) | IC50 (CYP2C19) | inhibition at 50 µM (PI-3 kinase γ; PI3Kγ) | IC50 (CYP2C9) | percentage of the test compound remained after reacting for 30 minutes (Metabolic stability test) | IC50 (CYP2D6) | inhibition at 10 µM (PI-3 kinase γ; compound at 10 μmol/L) | inhibition at 10 µM (PI-3 kinase γ; PI3Kγ, compound at 10 μM) | SMILES | inhibition [1]
1 | > 50 µM | > 20 µM | > 20 µM | > 20 µM | 94% | > 20 µM | 98.9% | > 20 µM | – | – | CNC(=O)Nc1cc2n(n1)CCN2c1cc(Br)cc(C(=O)Nc2cccc(C(=O)O)c2)c1 [Compound I-187] | –
2 | > 50 µM | > 20 µM | > 20 µM | > 20 µM | – | > 20 µM | 98.3% | > 20 µM | ≥ 95% | – | CC(=O)Nc1cc2n(n1)CCN2c1ccc2c(c1)CCC(=O)N2C [Compound I-340] | –
3 | > 50 µM | > 20 µM | > 20 µM | > 20 µM | – | > 20 µM | 99% | > 20 µM | 83% | – | COc1nc(OC)nc(N2CCc3nc(NC(C)=O)sc3C2)n1 [Compound I-330] | –
4 | > 50 µM | > 20 µM | > 20 µM | > 20 µM | ≥ 95% | > 20 µM | – | > 20 µM | – | – | CNC(=O)Nc1cc2n(n1)CCN2c1ccc(C(=O)O)s1 [Compound I-217] | –
5 | – | > 20 µM | > 20 µM | > 20 µM | – | > 20 µM | – | > 20 µM | 91% | – | CC(C)NC(=O)c1csc(C(=O)Nc2cc3n(n2)CCN3c2ccc3c(c2)CCN(C)C3=O)c1 [Compound I-402] | –

Continued, compound first:

Row | SMILES | solubility at 16 h (Solubility test) | IC50 (CYP3A4) | IC50 (CYP1A2) | IC50 (CYP2C19) | inhibition at 50 µM (PI-3 kinase γ; PI3Kγ) | IC50 (CYP2C9) | percentage of the test compound remained after reacting for 30 minutes (Metabolic stability test) | IC50 (CYP2D6) | inhibition at 10 µM (PI-3 kinase γ; compound at 10 μmol/L) | inhibition at 10 µM (PI-3 kinase γ; PI3Kγ, compound at 10 μM) | inhibition [1]
6 | CN1CCc2cc(N3CCn4nc(NC(=O)c5cccs5)cc43)ccc2C1=O [Compound I-331] | – | – | – | – | – | – | – | – | 84% | – | 93%
7 | CC(C)NC(=O)c1ccc(C(=O)Nc2cc3n(n2)CCN3c2ccc3c(c2)CCN(C)C3=O)s1 [Compound I-407] | – | > 20 µM | > 20 µM | > 20 µM | – | > 20 µM | 92.9% | > 20 µM | ≥ 95% | – | –
8 | COc1cc(N2CCc3nc(NC(=O)NCCC(=O)N4CCC[C@H]4C(=O)O)sc3C2)nc(OC)n1 [Compound I-276] | > 50 µM | > 20 µM | > 20 µM | > 20 µM | – | > 20 µM | 90.1% | > 20 µM | – | ≥ 95% | –
9 | CN1CCc2cc(N3CCn4nc(NC(=O)c5cc(O)no5)cc43)ccc2C1=O [Compound I-397] | > 50 µM | > 20 µM | > 20 µM | > 20 µM | – | > 20 µM | 96.7% | > 20 µM | ≥ 95% | – | –
10 | CN(C)C(=O)c1cc(C(=O)Nc2cc3n(n2)CCN3c2ccc3c(c2)CCN(C)C3=O)cs1 [Compound I-432] | – | > 20 µM | > 20 µM | > 20 µM | – | > 20 µM | – | > 20 µM | ≥ 95% | – | –
11 | CNC(=O)Nc1nc2c(s1)CN(c1cncc(OC)n1)CC2 [Compound I-378] | > 50 µM | – | – | – | – | – | – | – | ≥ 95% | – | > 99.5%
12 | CN1CCc2cc(N3CCn4nc(NC(=O)c5ccc(C(=O)NCC#N)s5)cc43)ccc2C1=O [Compound I-409] | – | > 20 µM | > 20 µM | > 20 µM | – | > 20 µM | 92.2% | > 20 µM | ≥ 95% | – | –
13 | CN(C)C(=O)CCC(=O)Nc1cc2n(n1)CCN2c1cccc(Cl)c1 [Compound I-234] | – | > 20 µM | > 20 µM | > 20 µM | ≥ 95% | > 20 µM | 98.3% | > 20 µM | – | – | –
14 | CN1CCc2cc(N3CCn4nc(NC(=O)CC5CCNC5)cc43)ccc2C1=O.Cl.Cl (centres unmarked) [Compound I-356] | > 50 µM | > 20 µM | > 20 µM | > 20 µM | – | > 20 µM | – | > 20 µM | ≥ 95% | – | –
